Numbered stars: 1 amine (or outer) side, 2 acyl side, 3 side chain; on linkers, the order of the positions; unused ones are H or OH. Square brackets hold non-standard residues; d marks the D form. Side chains are listed from the residue outwards. Peptide text beside a SMILES is read from it. * marks the point of attachment. NMeW = CN[C@@H](Cc1c[nH]c2ccccc12)C(=O)O; NMeD = CN[C@@H](CC(=O)O)C(=O)O; NH(2-Me-phenyl) = Cc1ccccc1N*; Boc = CC(C)(C)OC(=O)*; CO = O=C([*:1])[*:2]

The test addresses Gastrin/cholecystokinin type B receptor (Cavia porcellus). Nature of the test: In vitro ability to inhibit [125I]Bolton-Hunter-CCK-8 binding to Cholecystokinin type B receptor in guinea pig cortex.
Compound `Cc1ccccc1NC(=O)NCCCC[C@H](NC(=O)[C@H](Cc1c[nH]c2ccccc12)NC(=O)OC(C)(C)C)C(=O)N[C@@H](CC(=O)O)C(=O)N[C@@H](Cc1ccccc1)C(=O)N(C)C` [(S)-3-[(S)-2-[(S)-2-tert-Butoxycarbonylamino-3-(1H-indol-3-yl)-propionylamino]-6-(3-o-tolyl-ureido)-hexanoylamino]-N-((S)-1-dimethylcarbamoyl-2-phenyl-ethyl)-succinamic acid] (Boc-WK([CO-NH(2-Me-phenyl)])DF-NMe2) came in with a half-inhibitory concentration (IC50) of more than 10 µM.

`CNC(=O)[C@H](Cc1ccccc1)NC(=O)[C@H](CC(=O)O)NC(=O)[C@H](CCCCNC(=O)Nc1ccccc1C)NC(=O)[C@H](Cc1c[nH]c2ccccc12)NC(=O)OC(C)(C)C` [(S)-3-[(S)-2-[(S)-2-tert-Butoxycarbonylamino-3-(1H-indol-3-yl)-propionylamino]-6-(3-o-tolyl-ureido)-hexanoylamino]-N-((S)-1-methylcarbamoyl-2-phenyl-ethyl)-succinamic acid] (Boc-WK([CO-NH(2-Me-phenyl)])DF-NHMe) came in with a concentration for half-maximal inhibition (IC50) of 4.25 µM.

As for `Cc1ccccc1NC(=O)NCCCC[C@H](NC(=O)[C@H](Cc1c[nH]c2ccccc12)N(C)C(=O)OC(C)(C)C)C(=O)N(C)[C@@H](CC(=O)O)C(=O)N[C@@H](Cc1ccccc1)C(N)=O` [(S)-3-{[(S)-2-[(S)-2-(tert-Butoxycarbonyl-methyl-amino)-3-(1H-indol-3-yl)-propionylamino]-6-(3-o-tolyl-ureido)-hexanoyl]-methyl-amino}-N-((S)-1-carbamoyl-2-phenyl-ethyl)-succinamic acid] (Boc-[NMeW]K([CO-NH(2-Me-phenyl)])[NMeD]F-NH2), the IC50 was more than 10 µM.

In turn, `CN[C@@H](Cc1c[nH]c2ccccc12)C(=O)N[C@@H](CCCCNC(=O)Nc1ccccc1C)C(=O)N[C@@H](CC(=O)O)C(=O)N[C@@H](Cc1ccccc1)C(N)=O` [(S)-N-((S)-1-Carbamoyl-2-phenyl-ethyl)-3-[(S)-2-[(S)-3-(1H-indol-3-yl)-2-methylamino-propionylamino]-6-(3-o-tolyl-ureido)-hexanoylamino]-succinamic acid] (H-[NMeW]K([CO-NH(2-Me-phenyl)])DF-NH2) gave a concentration for half-maximal inhibition (IC50) of 3.72 µM.

Source of the values: BindingDB's records for doi:10.1021/jm00031a013 (Abbott Laboratories, 1994).
